Assay results published in patent US11312719B2, “9-substituted amino triazolo quinazoline derivatives as adenosine receptor antagonists, pharmaceutical compositions and their use” (Merck Sharp & Dohme Corp., priority 2018, dated 2022).

What was measured:
human A2B receptors = human A2B receptors (Homo sapiens (Human), UniProt P29275); assay: A2B antagonism in cAMP cell-based assay (LANCE cAMP, HEK293); conditions: HEK293 cells expressing human A2B receptor; for A2B cAMP % Inh. @10000 nM: at 10000 nM
Chain of human A2B receptors (P29275 whole entry): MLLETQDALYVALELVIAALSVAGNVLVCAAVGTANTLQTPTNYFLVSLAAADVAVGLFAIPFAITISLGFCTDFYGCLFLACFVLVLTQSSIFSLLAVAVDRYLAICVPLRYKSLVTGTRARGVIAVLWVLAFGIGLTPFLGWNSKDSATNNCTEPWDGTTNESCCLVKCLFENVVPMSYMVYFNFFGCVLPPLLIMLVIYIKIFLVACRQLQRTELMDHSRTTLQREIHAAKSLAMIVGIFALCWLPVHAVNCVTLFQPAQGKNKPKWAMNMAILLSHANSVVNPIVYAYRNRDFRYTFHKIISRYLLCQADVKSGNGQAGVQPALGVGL
Outline: (§1)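 HEK293 cells expressing human A2A or A2B, in HBSS/5 mM HEPES/200 nM rolipram, were preincubated with compound (0.5–10,000 nM, 0.25% DMSO) 30 min at 37° C. Adenosine was then added from 300 nM (A2A) or 600 nM (A2B) solution for 30 min.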

human A2A receptors = human A2A receptors (Homo sapiens (Human), UniProt P29274); assay: A2A antagonism in cAMP cell-based assay (LANCE cAMP, HEK293); conditions: HEK293 cells expressing human A2A receptor
Chain of human A2A receptors (P29274 whole entry): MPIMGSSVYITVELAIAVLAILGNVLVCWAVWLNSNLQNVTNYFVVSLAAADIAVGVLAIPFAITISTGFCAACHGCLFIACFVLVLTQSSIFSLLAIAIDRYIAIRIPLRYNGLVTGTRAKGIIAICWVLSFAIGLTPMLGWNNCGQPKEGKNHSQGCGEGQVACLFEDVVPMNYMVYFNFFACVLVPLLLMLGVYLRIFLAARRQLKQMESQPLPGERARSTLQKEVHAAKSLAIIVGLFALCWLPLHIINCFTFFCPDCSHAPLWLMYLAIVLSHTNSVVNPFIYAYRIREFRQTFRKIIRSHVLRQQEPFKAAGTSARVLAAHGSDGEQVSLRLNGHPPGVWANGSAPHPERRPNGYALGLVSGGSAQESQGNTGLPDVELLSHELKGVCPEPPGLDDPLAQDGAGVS
Outline: as §1

SMILES | A2B cAMP % Inh. @10000 nM (human A2B receptors) | IC50 (human A2A receptors) | IC50 (human A2B receptors)
COc1cc2nc(N)n3nc(C4CCC(C)N(c5cnn(C(C)C(C)O)c5)C4)nc3c2cc1F (single isomer, unassigned) [Example 239, (2R,3S or 2S,3R)-3-(4-((2R,5S or 2S,5R)-5-(5-amino-9-fluoro-8-methoxy-[1,2,4]triazolo[1,5-c]quinazolin-2-yl)-2-methylpiperidin-1-yl)-1H-pyrazol-1-yl)butan-2-ol] | 10% Inh. | 75.1 nM | 
COc1cc2nc(N)n3nc([C@@H]4CCCN(c5cnn(C(C)(C)C(C)O)c5)C4)nc3c2cc1F (single isomer, unassigned) [Example 242, (R or S)-3-(4-((R)-3-(5-amino-9-fluoro-8-methoxy-[1,2,4]triazolo[1,5-c]quinazolin-2-yl)piperidin-1-yl)-1H-pyrazol-1-yl)-3-methylbutan-2-ol] |  | 2 nM | 34.9 nM
COc1cc(F)cc2c1nc(N)n1nc([C@@H]3CCCN(c4cnn(C(C)(C)C(C)O)c4)C3)nc21 (single isomer, unassigned) [Example 245, (S or R)-3-(4-((R)-3-(5-amino-9-fluoro-7 methoxy-[1,2,4]triazolo[1,5-c]quinazolin-2-yl)piperidin-1-yl)-1H-pyrazol-1-yl)-3-methylbutan-2-ol] |  | 2 nM | 25.8 nM
CC(O)C(C)(C)n1cc(N2CCC[C@@H](c3nc4c5cc(F)cc(F)c5nc(N)n4n3)C2)cn1 (single isomer, unassigned) [Example 246, (R or S)-3-(4-((R)-3-(5-amino-7,9-difluoro-[1,2,4]triazolo [1,5-c]quinazolin-2-yl)piperidin-1-yl)-1H-pyrazol-1-yl)-3-methylbutan-2-ol] |  | 3.2 nM | 21.3 nM
CC(O)C(C)(C)n1cc(N2CCC[C@@H](c3nc4c5cc(F)cc(F)c5nc(N)n4n3)C2)cn1 (single isomer, unassigned) [Example 247, (S or R)-3-(4-((R)-3-(5-amino-7,9-difluoro-[1,2,4]triazolo [1,5-c]quinazolin-2-yl)piperidin-1-yl)-1H-pyrazol-1-yl)-3-methylbutan-2-ol] |  | 4.5 nM | 21.8 nM
C[C@H]1CC[C@@H](c2nc3c4cc(F)cc(F)c4nc(N)n3n2)CN1c1cnn(C(C)(CO)CO)c1 (single isomer, unassigned) [Example 248, 2-(4-((2S,5R or 2R,5S)-5-(5-amino-7,9-difluoro-[1,2,4]triazolo[1,5-c]quinazolin-2-yl)-2-methylpiperidin-1-yl)-1H-pyrazol-1-yl)-2-methylpropane-1,3-diol] |  | 1.4 nM | 8.4 nM
C[C@@H]1CC[C@H](c2nc3c4cc(F)cc(F)c4nc(N)n3n2)CN1c1cnn(C(C)(CO)CO)c1 (single isomer, unassigned) [Example 249, 2-(4-((2R,5S or 2S,5R)-5-(5-amino-7,9-difluoro-[1,2,4]triazolo[1,5-c]quinazolin-2-yl)-2-methylpiperidin-1-yl)-1H-pyrazol-1-yl)-2-methylpropane-1,3-diol] |  | 26.9 nM | 197 nM
COc1cc2nc(N)n3nc(C4CCC(C)N(c5cnn(C(C)(CO)CO)c5)C4)nc3c2cc1F (single isomer, unassigned) [Example 250, 2-(4-((2S,5R or 2R,5S)-5-(5-amino-9-fluoro-8-methoxy-[1,2,4]triazolo[1,5-c]quinazolin-2-yl)-2-methylpiperidin-1-yl)-1H-pyrazol-1-yl)-2-methylpropane-1,3-diol] |  | 0.7 nM | 4.9 nM
COc1cc2nc(N)n3nc(C4CCC(C)N(c5cnn(C(C)(CO)CO)c5)C4)nc3c2cc1F (single isomer, unassigned) [Example 251, 2-(4-((2R,5S or 2S,5R)-5-(5-amino-9-fluoro-8-methoxy-[1,2,4]triazolo[1,5-c]quinazolin-2-yl)-2-methylpiperidin-1-yl)-1H-pyrazol-1-yl)-2-methylpropane-1,3-diol] |  | 39.5 nM | 387 nM
COc1cc2nc(N)n3nc(C4CCC(C)N(c5cnn(CC(C)(O)CO)c5)C4)nc3c2cc1F (single isomer, unassigned) [Example 253, (S or R)-2-(4-((2S,5R or 2R,5S)-5-(5-amino-9-fluoro-8-methoxy-[1,2,4]triazolo[1,5-c]quinazolin-2-yl)-2-methylpiperidin-1-yl)-1H-pyrazol-1-yl)-2-methylpropane-1,2-diol] |  | 123 nM | > 10000 nM
COc1cc2nc(N)n3nc(C4CCC(C)N(c5cnn(CC(C)(O)CO)c5)C4)nc3c2cc1F (single isomer, unassigned) [Example 255] |  | 2.6 nM | 28.8 nM
CC1CCC(c2nc3c4cc(F)cc(F)c4nc(N)n3n2)CN1c1cnn(CC(C)(O)CO)c1 (single isomer, unassigned) [Example 258, (R or S)-2-(4-((2R,5S or 2S,5R)-5-(5-amino-7,9-difluoro-[1,2,4]triazolo[1,5-c]quinazolin-2-yl)-2-methylpiperidin-1-yl)-1H-pyrazol-1-yl)-2-methylpropane-1,2-diol] |  | 2.3 nM | 8.1 nM
CC1CCC(c2nc3c4cc(F)cc(F)c4nc(N)n3n2)CN1c1cnn(CC(C)(CO)CO)c1 (single isomer, unassigned) [Example 260] |  | 1.7 nM | 10 nM
COc1cc2nc(N)n3nc(C4CCC(C)N(c5cnn(CC(C)(C)N)c5)C4)nc3c2cc1F (single isomer, unassigned) [Example 263, 2-((3S,6R or 3R,6S)-1-(1-(2-amino-2-methylpropyl)-1H-pyrazol-4-yl)-6-methylpiperidin-3-yl)-9-fluoro-8-methoxy-[1,2,4]triazolo[1,5-c]quinazolin-5-amine] |  | 26 nM | 511 nM
COc1cc2nc(N)n3nc(C4CCC(C)N(c5cnn(C(C)(C)C(C)O)c5)C4)nc3c2cc1F (single isomer, unassigned) [Example 265, (S or R)-3-(4-((2S,5R or 2R,5S)-5-(5-amino-9-fluoro-8-methoxy-[1,2,4]triazolo[1,5-c]quinazolin-2-yl)-2-methylpiperidin-1-yl)-1H-pyrazol-1-yl)-3-methylbutan-2-ol] |  | 1.3 nM | 4.5 nM

The next lines start with the values.

A2B cAMP % Inh. @10000 nM (human A2B receptors) | IC50 (human A2A receptors) | IC50 (human A2B receptors) | SMILES
 | 2.6 nM | 50.7 nM | COc1cc2nc(N)n3nc([C@@H]4CCCN(c5cnn(C(C)(C)C(C)O)c5)C4)nc3c2cc1F (single isomer, unassigned) [Example 243, (S or R)-3-(4-((R)-3-(5-amino-9-fluoro-8-methoxy-[1,2,4]triazolo[1,5-c]quinazolin-2-yl)piperidin-1-yl)-1H-pyrazol-1-yl)-3-methylbutan-2-ol]
 | 0.9 nM | 18.8 nM | COc1cc(F)cc2c1nc(N)n1nc([C@@H]3CCCN(c4cnn(C(C)(C)C(C)O)c4)C3)nc21 (single isomer, unassigned) [Example 244, (R or S)-3-(4-((R)-3-(5-amino-9-fluoro-7 methoxy-[1,2,4]triazolo[1,5-c]quinazolin-2-yl)piperidin-1-yl)-1H-pyrazol-1-yl)-3-methylbutan-2-ol]
 | 95 nM | 8160 nM | COc1cc2nc(N)n3nc(C4CCC(C)N(c5cnn(CC(C)(O)CO)c5)C4)nc3c2cc1F (single isomer, unassigned) [Example 252]
 | 1.5 nM | 10 nM | COc1cc2nc(N)n3nc(C4CCC(C)N(c5cnn(CC(C)(O)CO)c5)C4)nc3c2cc1F (single isomer, unassigned) [Example 254]
 | 241 nM | 3890 nM | CC1CCC(c2nc3c4cc(F)cc(F)c4nc(N)n3n2)CN1c1cnn(CC(C)(O)CO)c1 (single isomer, unassigned) [Example 256]
25% Inh. | 541 nM |  | CC1CCC(c2nc3c4cc(F)cc(F)c4nc(N)n3n2)CN1c1cnn(CC(C)(O)CO)c1 (single isomer, unassigned) [Example 257, (S or R)-2-(4-((2S,5R or 2R,5S)-5-(5-amino-7,9-difluoro-[1,2,4]triazolo[1,5-c]quinazolin-2-yl)-2-methylpiperidin-1-yl)-1H-pyrazol-1-yl)-2-methylpropane-1,2-diol]
 | 2.3 nM | 11.8 nM | CC1CCC(c2nc3c4cc(F)cc(F)c4nc(N)n3n2)CN1c1cnn(CC(C)(O)CO)c1 (single isomer, unassigned) [Example 259, (S or R)-2-(4-((2R,5S or 2S,5R)-5-(5-amino-7,9-difluoro-[1,2,4]triazolo[1,5-c]quinazolin-2-yl)-2-methylpiperidin-1-yl)-1H-pyrazol-1-yl)-2-methylpropane-1,2-diol]
 | 86.6 nM | 1470 nM | CC1CCC(c2nc3c4cc(F)cc(F)c4nc(N)n3n2)CN1c1cnn(CC(C)(CO)CO)c1 (single isomer, unassigned) [Example 261]
 | 2.2 nM | 23.9 nM | COc1cc2nc(N)n3nc(C4CCC(C)N(c5cnn(CC(C)(C)N)c5)C4)nc3c2cc1F (single isomer, unassigned) [Example 262, 2-((3R,6S or 3S,6R)-1-(1-(2-amino-2-methylpropyl)-1H-pyrazol-4-yl)-6-methylpiperidin-3-yl)-9-fluoro-8-methoxy-[1,2,4]triazolo[1,5-c]quinazolin-5-amine]
 | 3 nM | 14.3 nM | COc1cc2nc(N)n3nc(C4CCC(C)N(c5cnn(C(C)(C)C(C)O)c5)C4)nc3c2cc1F (single isomer, unassigned) [Example 264, (R or S)-3-(4-((2S,5R or 2R,5S)-5-(5-amino-9-fluoro-8-methoxy-[1,2,4]triazolo[1,5-c]quinazolin-2-yl)-2-methylpiperidin-1-yl)-1H-pyrazol-1-yl)-3-methylbutan-2-ol]
